{"source": "patent US9170257B2", "about": "(priority 2012, dated 2015)", "experiment": "Tissue distribution of curcumin and THC at necropsy 15 minutes post-infusion", "parameters": "species or system Beagle dogs", "conditions": "both sexes, beagle, dog, in vivo, 10 mg/kg; for Kp at 8 h: 8 hr infusion", "method": "The test article will be administered to 8 Beagle dogs by intravenous infusion over two hours (Part A) or eight hours (Part B) as shown in Table 6.\nMultiple samples of tissue weighing approximately 1 gram were removed and snap frozen in the presence or absence of phosphoric acid (H3PO4). For all tissue samples, the levels of curcumin and THC were determined using a method developed by the Bioanalytical Department at Nucro-Technics. […] Values that were below the limit of quantification were assigned a value of 0. […] Tissue distribution data was analyzed using, unless stated, the data from 4 dogs and are presented as the mean±standard error (S.E.).", "note": "Like-named read-outs stand apart in the source and are kept apart here."}
{"smiles": "COc1cc(CCC(=O)CC(=O)CCc2ccc(O)c(OC)c2)ccc1O", "note": "[THC, tetrahydrocurcumin]", "values": [{"measurement": "Kp at 8 h", "setting": "H3PO4 stabilized, read-out: Kp [tissue]/[plasma], Striatum", "value": 0.03}, {"measurement": "Kp at 8 h", "setting": "H3PO4 stabilized, read-out: Kp [tissue]/[plasma], Urinary Bladder", "value": 0.0106}, {"measurement": "concentration at 15 min", "setting": "Average tissue concentration, Intestinal wall, Eight hour infusion, H3PO4 stabilized", "value": 0.09, "unit": "ng/g"}, {"measurement": "concentration at 15 min", "setting": "Average tissue concentration, Intestinal wall, Two hour infusion, H3PO4 stabilized", "value": 2.11, "unit": "ng/g"}, {"measurement": "concentration at 15 min", "setting": "Eight hour infusion, H3PO4 stabilized, read-out: Average tissue concentration, Bladder", "value": 1.11, "unit": "ng/g"}, {"measurement": "concentration at 15 min", "setting": "Eight hour infusion, H3PO4 stabilized, read-out: Average tissue concentration, Brainstem", "value": 3.02, "unit": "ng/g"}, {"measurement": "concentration at 15 min", "setting": "Eight hour infusion, H3PO4 stabilized, read-out: Average tissue concentration, Cortex", "value": 0.49, "unit": "ng/g"}, {"measurement": "concentration at 15 min", "setting": "Eight hour infusion, H3PO4 stabilized, read-out: Average tissue concentration, Heart", "value": 0.03, "unit": "ng/g"}, {"measurement": "concentration at 15 min", "setting": "Eight hour infusion, H3PO4 stabilized, read-out: Average tissue concentration, Hippocampus", "value": 1.12, "unit": "ng/g"}, {"measurement": "concentration at 15 min", "setting": "Eight hour infusion, H3PO4 stabilized, read-out: Average tissue concentration, Kidney", "value": 2.03, "unit": "ng/g"}, {"measurement": "concentration at 15 min", "setting": "Eight hour infusion, H3PO4 stabilized, read-out: Average tissue concentration, Liver", "value": 2.24, "unit": "ng/g"}, {"measurement": "concentration at 15 min", "setting": "Eight hour infusion, H3PO4 stabilized, read-out: Average tissue concentration, Lung", "value": 6.36, "unit": "ng/g"}, {"measurement": "concentration at 15 min", "setting": "Eight hour infusion, H3PO4 stabilized, read-out: Average tissue concentration, Muscle", "value": 2.42, "unit": "ng/g"}, {"measurement": "concentration at 15 min", "setting": "Eight hour infusion, H3PO4 stabilized, read-out: Average tissue concentration, Pancreas", "value": 1.34, "unit": "ng/g"}, {"measurement": "concentration at 15 min", "setting": "Eight hour infusion, H3PO4 stabilized, read-out: Average tissue concentration, Spleen", "value": 0.42, "unit": "ng/g"}, {"measurement": "concentration at 15 min", "setting": "Eight hour infusion, H3PO4 stabilized, read-out: Average tissue concentration, Striatum", "value": 3.13, "unit": "ng/g"}, {"measurement": "Kp at 2 h", "setting": "Kp [tissue]/[plasma], Intestinal Wall, 2 hr infusion, H3PO4 stabilized", "value": 0.0003}, {"measurement": "Kp at 8 h", "setting": "Kp [tissue]/[plasma], Intestinal Wall, H3PO4 stabilized", "value": 0.002}, {"measurement": "concentration at 15 min", "setting": "Table 14, 2 hour infusion, +H3PO4, read-out: Tissue analysis, Brainstem", "value": 10.6, "unit": "ng/g"}, {"measurement": "concentration at 15 min", "setting": "Table 14, 2 hour infusion, +H3PO4, read-out: Tissue analysis, Cortex", "value": 3.08, "unit": "ng/g"}, {"measurement": "concentration at 15 min", "setting": "Table 14, 2 hour infusion, +H3PO4, read-out: Tissue analysis, Hippocampus", "value": 6.46, "unit": "ng/g"}, {"measurement": "concentration at 15 min", "setting": "Table 14, 2 hour infusion, +H3PO4, read-out: Tissue analysis, Liver", "value": 4.58, "unit": "ng/g"}, {"measurement": "concentration at 15 min", "setting": "Table 14, 2 hour infusion, +H3PO4, read-out: Tissue analysis, Lung", "value": 9.37, "unit": "ng/g"}, {"measurement": "concentration at 15 min", "setting": "Table 14, 2 hour infusion, +H3PO4, read-out: Tissue analysis, Pancreas", "value": 0.91, "unit": "ng/g"}, {"measurement": "concentration at 15 min", "setting": "Table 14, 2 hour infusion, +H3PO4, read-out: Tissue analysis, Spleen", "value": 1.6, "unit": "ng/g"}, {"measurement": "concentration at 15 min", "setting": "Table 14, 2 hour infusion, +H3PO4, read-out: Tissue analysis, Striatum", "value": 11.1, "unit": "ng/g"}, {"measurement": "concentration at 15 min", "setting": "Table 14, 2 hour infusion, −H3PO4, read-out: Tissue analysis, Brainstem", "value": 2.33, "unit": "ng/g"}, {"measurement": "concentration at 15 min", "setting": "Table 14, 2 hour infusion, −H3PO4, read-out: Tissue analysis, Cortex", "value": 0.67, "unit": "ng/g"}, {"measurement": "concentration at 15 min", "setting": "Table 14, 2 hour infusion, −H3PO4, read-out: Tissue analysis, Hippocampus", "value": 0.75, "unit": "ng/g"}, {"measurement": "concentration at 15 min", "setting": "Table 14, 2 hour infusion, −H3PO4, read-out: Tissue analysis, Liver", "value": 2.41, "unit": "ng/g"}, {"measurement": "concentration at 15 min", "setting": "Table 14, 2 hour infusion, −H3PO4, read-out: Tissue analysis, Lung", "value": 17.7, "unit": "ng/g"}, {"measurement": "concentration at 15 min", "setting": "Table 14, 2 hour infusion, −H3PO4, read-out: Tissue analysis, Pancreas", "value": 2.01, "unit": "ng/g"}, {"measurement": "concentration at 15 min", "setting": "Table 14, 2 hour infusion, −H3PO4, read-out: Tissue analysis, Spleen", "value": 1.35, "unit": "ng/g"}, {"measurement": "concentration at 15 min", "setting": "Table 14, 2 hour infusion, −H3PO4, read-out: Tissue analysis, Striatum", "value": 6.21, "unit": "ng/g"}, {"measurement": "concentration at 15 min", "setting": "Table 15, 2 hour infusion, +H3PO4, read-out: Tissue analysis, Brainstem", "value": 3.02, "unit": "ng/g"}, {"measurement": "concentration at 15 min", "setting": "Table 15, 2 hour infusion, +H3PO4, read-out: Tissue analysis, Cortex", "value": 0.49, "unit": "ng/g"}, {"measurement": "concentration at 15 min", "setting": "Table 15, 2 hour infusion, +H3PO4, read-out: Tissue analysis, Hippocampus", "value": 1.12, "unit": "ng/g"}, {"measurement": "concentration at 15 min post-infusion", "setting": "Table 15, 2 hour infusion, +H3PO4, read-out: Tissue analysis, Liver", "value": 2.24, "unit": "ng/g"}, {"measurement": "concentration at 15 min", "setting": "Table 15, 2 hour infusion, +H3PO4, read-out: Tissue analysis, Lung", "value": 6.36, "unit": "ng/g"}, {"measurement": "concentration at 15 min", "setting": "Table 15, 2 hour infusion, +H3PO4, read-out: Tissue analysis, Pancreas", "value": 1.34, "unit": "ng/g"}, {"measurement": "concentration at 15 min post-infusion", "setting": "Table 15, 2 hour infusion, +H3PO4, read-out: Tissue analysis, Spleen", "value": 0.42, "unit": "ng/g"}, {"measurement": "concentration at 15 min", "setting": "Table 15, 2 hour infusion, +H3PO4, read-out: Tissue analysis, Striatum", "value": 3.13, "unit": "ng/g"}, {"measurement": "concentration at 15 min", "setting": "Table 15, 2 hour infusion, −H3PO4, read-out: Tissue analysis, Brainstem", "value": 0.83, "unit": "ng/g"}, {"measurement": "concentration at 15 min", "setting": "Table 15, 2 hour infusion, −H3PO4, read-out: Tissue analysis, Cortex", "value": 0.12, "unit": "ng/g"}, {"measurement": "concentration at 15 min", "setting": "Table 15, 2 hour infusion, −H3PO4, read-out: Tissue analysis, Hippocampus", "value": 0.01, "unit": "ng/g"}, {"measurement": "concentration at 15 min post-infusion", "setting": "Table 15, 2 hour infusion, −H3PO4, read-out: Tissue analysis, Liver", "value": 2.63, "unit": "ng/g"}, {"measurement": "concentration at 15 min", "setting": "Table 15, 2 hour infusion, −H3PO4, read-out: Tissue analysis, Lung", "value": 10.8, "unit": "ng/g"}, {"measurement": "concentration at 15 min", "setting": "Table 15, 2 hour infusion, −H3PO4, read-out: Tissue analysis, Pancreas", "value": 0.33, "unit": "ng/g"}, {"measurement": "concentration at 15 min post-infusion", "setting": "Table 15, 2 hour infusion, −H3PO4, read-out: Tissue analysis, Spleen", "value": 0.32, "unit": "ng/g"}, {"measurement": "concentration at 15 min", "setting": "Table 15, 2 hour infusion, −H3PO4, read-out: Tissue analysis, Striatum", "value": 1.12, "unit": "ng/g"}, {"measurement": "concentration at 15 min", "setting": "Tissue level, Intestinal Wall, 2 hour infusion, No H3PO4", "value": 0.73, "unit": "ng/g"}, {"measurement": "concentration at 15 min", "setting": "Tissue level, Intestinal Wall, 2 hour infusion, Plus H3PO4", "value": 2.12, "unit": "ng/g"}, {"measurement": "concentration at 15 min", "setting": "Tissue level, Intestinal Wall, 8 hour infusion, No H3PO4", "value": 0.31, "unit": "ng/g"}, {"measurement": "concentration at 15 min", "setting": "Tissue level, Intestinal Wall, 8 hour infusion, Plus H3PO4", "value": 0.21, "unit": "ng/g"}, {"measurement": "concentration at 15 min", "setting": "Two hour infusion, H3PO4 stabilized, read-out: Average tissue concentration, Bladder", "value": 2.25, "unit": "ng/g"}, {"measurement": "concentration at 15 min", "setting": "Two hour infusion, H3PO4 stabilized, read-out: Average tissue concentration, Brainstem", "value": 10.6, "unit": "ng/g"}, {"measurement": "concentration at 15 min", "setting": "Two hour infusion, H3PO4 stabilized, read-out: Average tissue concentration, Cortex", "value": 3.08, "unit": "ng/g"}, {"measurement": "concentration at 15 min", "setting": "Two hour infusion, H3PO4 stabilized, read-out: Average tissue concentration, Heart", "value": 0.68, "unit": "ng/g"}, {"measurement": "concentration at 15 min", "setting": "Two hour infusion, H3PO4 stabilized, read-out: Average tissue concentration, Hippocampus", "value": 6.46, "unit": "ng/g"}, {"measurement": "concentration at 15 min", "setting": "Two hour infusion, H3PO4 stabilized, read-out: Average tissue concentration, Kidney", "value": 4.25, "unit": "ng/g"}, {"measurement": "concentration at 15 min", "setting": "Two hour infusion, H3PO4 stabilized, read-out: Average tissue concentration, Liver", "value": 4.58, "unit": "ng/g"}, {"measurement": "concentration at 15 min", "setting": "Two hour infusion, H3PO4 stabilized, read-out: Average tissue concentration, Lung", "value": 9.37, "unit": "ng/g"}, {"measurement": "concentration at 15 min", "setting": "Two hour infusion, H3PO4 stabilized, read-out: Average tissue concentration, Muscle", "value": 4.19, "unit": "ng/g"}, {"measurement": "concentration at 15 min", "setting": "Two hour infusion, H3PO4 stabilized, read-out: Average tissue concentration, Pancreas", "value": 0.91, "unit": "ng/g"}, {"measurement": "concentration at 15 min", "setting": "Two hour infusion, H3PO4 stabilized, read-out: Average tissue concentration, Spleen", "value": 1.6, "unit": "ng/g"}, {"measurement": "concentration at 15 min", "setting": "Two hour infusion, H3PO4 stabilized, read-out: Average tissue concentration, Striatum", "value": 11.1, "unit": "ng/g"}]}
